Each block holds one compound with its values, some of them ahead of it.
Tests used:
[1] = Half life period in phosphate buffer at pH 7.4; assay type: ADME; details: for T1/2: buffer
Homo sapiens [2] = species: Homo sapiens; assay: Half life period in human plasma at 37 degree Celsius temperature (pH 7.4)
[3] = Half life period in rat plasma at 37 degree Celsius temperature (pH 7.4); assay type: ADME, organism-based
[4] = Half life period in rat plasma at 25 degree Centigrade temperature (pH 7.4); assay type: ADME, organism-based
[5] = Half life period in phosphate buffer at pH 7.4 & 25 degrees C; assay type: ADME
Homo sapiens [6] = species: Homo sapiens; assay: Half life period in human plasma at 25 degree Celsius temperature (pH 7.4)

Compound: O=C(Nc1cc(Cl)ccc1O)Oc1ccccc1
- half-life ([1]; phosphate buffer): 0.2 min

Compound: CC(=O)Nc1cccc(OC(=O)Nc2cc(Cl)ccc2O)c1
- half-life ([1]; phosphate buffer): 0.125 min

Compound: CC(=O)Nc1ccc(OC(=O)Nc2cc(Cl)ccc2O)cc1
- half-life [4]: 0.833 min
- half-life [5]: 0.6 min
- half-life (Homo sapiens [6]): 1.1 min
- half-life ([1]; phosphate buffer): 0.118 min

Compound: O=C(Nc1cc(Cl)ccc1O)Oc1cccc(Cl)c1
- T1/2 [1]: 0.0633 min

Compound: O=C(Nc1cc(Cl)ccc1O)OCC(Cl)(Cl)Cl
- half-life (Homo sapiens [2]): 10.1 min
- half-life [3]: 7.5 min
- half-life [1]: 3.2 min

Compound: O=C(Nc1cc(Cl)ccc1O)Oc1cccc(C(F)(F)F)c1
- T1/2 [1]: 0.0517 min

Results, then the compound that gave them:

- half-life ([1]; phosphate buffer): 108 min
Compound: C#CCOC(=O)Nc1cc(Cl)ccc1O

- half-life (Homo sapiens [2]): 105 min
- half-life [3]: 53.8 min
- half-life [1]: 42.4 min
Compound: O=C(Nc1cc(Cl)ccc1O)OCC(Cl)Cl

- half-life [1]: 2.58 min
Compound: O=C(Nc1cc(Cl)ccc1O)OCC(F)(F)F

- half-life ([1]; phosphate buffer): 566 min
Compound: CC#CCOC(=O)Nc1cc(Cl)ccc1O

- half-life ([1]; phosphate buffer): 1310 min
Compound: O=C(Nc1cc(Cl)ccc1O)OCCCl

— ChEMBL document CHEMBL1128836, “Synthesis of prodrugs and a mutual prodrug of chlorzoxazone and acetaminophen based on a masked benzoxazolone” (Bioorg Med Chem Lett, 1995)
